Among the data in ChEMBL document CHEMBL1158115, “Acylphloroglucinol derivatives from Hypericum prolificum” (J Nat Prod, 2006) are IC50 and Activity values, retold here.

The subject of one assay is SF-268. Kind of assay: Cytotoxicity against human SF-268 cells by MTT assay. Type of assay: functional, cell-based.
The next assay concerns MCF7. The experiment in a line: Cytotoxicity against human MCF7 cells by MTT assay. It counts as functional, cell-based. On the technique in general: Formazan colour is commonly taken as a measure of viable cells.
The subject of the next assay is NCI-H460. Kind of assay: Cytotoxicity against human NCI-H460 cells by MTT assay. It counts as functional, cell-based.
Another assay has as its system HCT-116. Kind of assay: Cytotoxicity against human HCT116 cells by MTT assay. Type of assay: functional, cell-based.
A further assay has as its system AGS. The experiment in a line: Cytotoxicity against human AGS cells by MTT assay. It counts as functional, cell-based.
In assay [1] the target is Prostaglandin G/H synthase 1 (Homo sapiens) (UniProt P23219). Kind of assay: Inhibition of cyclooxygenase 1 at 103.7 uM.
Chain of Prostaglandin G/H synthase 1 (Homo sapiens) (P23219 whole entry): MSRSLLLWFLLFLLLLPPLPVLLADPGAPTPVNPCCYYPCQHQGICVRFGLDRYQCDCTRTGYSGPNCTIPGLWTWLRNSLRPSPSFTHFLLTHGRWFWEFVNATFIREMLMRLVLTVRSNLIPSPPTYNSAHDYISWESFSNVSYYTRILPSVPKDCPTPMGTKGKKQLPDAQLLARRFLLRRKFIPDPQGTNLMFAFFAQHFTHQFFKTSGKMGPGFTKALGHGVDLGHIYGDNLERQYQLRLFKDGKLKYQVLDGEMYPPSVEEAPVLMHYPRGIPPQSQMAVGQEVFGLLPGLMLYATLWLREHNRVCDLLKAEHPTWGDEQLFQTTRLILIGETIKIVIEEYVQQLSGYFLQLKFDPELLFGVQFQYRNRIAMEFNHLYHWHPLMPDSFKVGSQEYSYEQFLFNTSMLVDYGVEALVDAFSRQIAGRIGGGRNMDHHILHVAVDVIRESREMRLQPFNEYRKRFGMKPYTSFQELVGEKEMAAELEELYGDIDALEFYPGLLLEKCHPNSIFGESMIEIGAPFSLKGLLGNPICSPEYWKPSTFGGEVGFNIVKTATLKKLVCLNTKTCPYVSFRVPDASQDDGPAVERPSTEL
Assay [2] addresses T1, Prostaglandin G/H synthase 2 (Homo sapiens) (UniProt P35354).
T1 sequence (whole entry): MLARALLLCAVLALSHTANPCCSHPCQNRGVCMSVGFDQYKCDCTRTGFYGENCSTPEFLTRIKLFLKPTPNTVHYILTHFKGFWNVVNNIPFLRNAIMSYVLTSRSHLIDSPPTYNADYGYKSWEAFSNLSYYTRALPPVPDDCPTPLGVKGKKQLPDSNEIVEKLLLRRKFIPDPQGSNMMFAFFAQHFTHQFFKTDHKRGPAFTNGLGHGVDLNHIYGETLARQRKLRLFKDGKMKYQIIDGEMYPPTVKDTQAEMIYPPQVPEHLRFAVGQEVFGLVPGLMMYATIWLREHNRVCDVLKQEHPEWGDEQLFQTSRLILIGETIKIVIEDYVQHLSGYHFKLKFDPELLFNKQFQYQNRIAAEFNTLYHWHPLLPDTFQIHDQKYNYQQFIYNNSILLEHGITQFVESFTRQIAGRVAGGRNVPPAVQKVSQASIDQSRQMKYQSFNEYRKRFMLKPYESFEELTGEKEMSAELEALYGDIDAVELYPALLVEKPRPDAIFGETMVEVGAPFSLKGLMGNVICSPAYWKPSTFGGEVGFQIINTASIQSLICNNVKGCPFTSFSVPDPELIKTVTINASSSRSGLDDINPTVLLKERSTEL
The experiment in a line: Inhibition of cyclooxygenase 2 at 103.7 uM.

Active and inactive are the calls of the source. The rule behind the calls is not given here.

Usually IC50 stands for the midpoint of a concentration-inhibition curve. Take `COc1cccc2c1C(=O)c1c(O)c3c(c(O)c1C2=O)C[C@@](O)(C(=O)CO)C[C@@H]3O[C@H]1C[C@H](N)[C@H](O)[C@H](C)O1` [DOXORUBICIN]: the IC50 in the assay with SF-268 is 1.55 µM; in the assay on MCF7, 0.43 µM; in the assay on NCI-H460 it was 0.66 µM; with HCT-116 it was 0.41 µM; in the assay with AGS it was 0.31 µM.

For `CCC(C)C(=O)C12C(=O)C=C(O)C(C[C@H](CC=C(C)C)[C@@]1(C)CC/C=C(\C)CCC=C(C)C)C2=O` (stereo partly specified), the outcome (with SF-268; in the assay on MCF7; in the assay with NCI-H460; in assay [1]; in the assay on HCT-116; in the assay with AGS) was inactive. In assay [2], the outcome was inactive.

In the case of `CCC(C)C(=O)c1c(O)cc(O)c2c1O[C@](C)(CC/C=C(\C)CCC=C(C)C)[C@@H](CC=C(C)C)C2` (stereo partly specified) [PROLIFICIN A], the IC50 with SF-268 stood at 30.9 µM; in the assay with MCF7 it was 23.7 µM; in the assay on NCI-H460 it was 29.9 µM; in the assay with HCT-116 it was 35.1 µM; in the assay on AGS, 32.4 µM. Also, the outcome in assay [1] and in assay [2] was inactive.

As to `CC(C)=CCC/C(C)=C/CC[C@]1(C)[C@@H](CC=C(C)C)CC2C(=O)C1(C(=O)C(C)C)C(=O)C=C2O` (stereo partly specified), the result (in the assay with SF-268; in the assay with MCF7; in the assay with NCI-H460; in assay [1]; in the assay on HCT-116; in the assay with AGS) was inactive. Further, in assay [2], the result was inactive.
